Laboratory results taken from patent US7279161B2, “Factor IX/factor IXa activating antibodies and antibody derivatives” (Baxter Aktiengesellschaft, priority 1999, dated 2007).

Molecular target: T1, human FIXa (Homo sapiens, UniProt P00740)
T1 construct: with (+) and without (−) addition of 50 ng human FIXaβ; purchased ERL (Enzyme Research Laboratories)
Assay: Chromogenic FVIII-like (FXa generation) assay with human FIXa added
Format: biochemical
Summary of the method: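 FXa generation at 37 °C with bovine FIXa/FX plus phospholipids, 25 mM CaCl2 stock, S-2222 substrate and thrombin inhibitor I-2581; 50 ng human FIXa added per reaction. Absorbance at 405 and 490 nm read from 5 min to 2 h against a reagent blank.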

T1 sequence (P00740 47-191 limits assumed): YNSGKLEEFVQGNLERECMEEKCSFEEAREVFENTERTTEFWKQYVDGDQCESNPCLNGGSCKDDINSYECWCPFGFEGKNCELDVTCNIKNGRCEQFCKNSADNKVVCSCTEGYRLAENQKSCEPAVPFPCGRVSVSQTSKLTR
T1 sequence (P00740 227-461 limits assumed): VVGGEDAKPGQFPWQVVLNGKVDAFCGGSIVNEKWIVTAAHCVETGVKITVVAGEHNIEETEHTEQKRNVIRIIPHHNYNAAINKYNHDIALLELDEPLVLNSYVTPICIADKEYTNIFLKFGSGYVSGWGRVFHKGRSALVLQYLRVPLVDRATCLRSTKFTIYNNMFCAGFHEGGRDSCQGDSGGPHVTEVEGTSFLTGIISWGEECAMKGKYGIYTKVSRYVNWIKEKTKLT

RRREGGGYYVNWYFDRRR [A1/3]
chromogenic FVIII-like activity (FXa generation) (2.9 nM human FIXa): readily measurable FXa generation
chromogenic activity (12 μM peptide, 2.3 nM human FIXa): virtually unchanged
chromogenic FVIII-like activity (24 μM, with vs without 2.3 nM human FIXa): the reaction takes place only in the presence of human FIXa
